Results on one compound are retold here after US10335445B2, “Compositions and methods of antiallergic phorbol ester and phorbol derivatives as the main active ingredients from the seeds of aquilaria malaccensis” (WE-WIN APPLIED BIO-TECH CO., LTD., priority 2016, dated 2019).

The structures appear in SMILES notation.

For assay [1], the system named is RBL-2H3 cells. The experiment in a line: antigen (DNP-BSA)-induced degranulation β-hexosaminidase release assay. It is filed as cell-based. Conditions: Rattus norvegicus. Here is the method:
(§1) Cell culture: The mucosal mast cell-derived rat basophilic leukemia (RBL-2H3) cell line was purchased from the Bioresource Collection and Research Center (Hsin-Chu, Taiwan). Cells were grown in DMEM medium supplemented with 10% FBS and 100 U/mL penicillin plus 100 μg/mL streptomycin. Cells were cultured in 10 cm cell culture dishes at 37° C. in a humidified chamber with 5% CO2 in air.
(§2) Degranulation β-hexosaminidase assay induced by A23187 or antigen: The degree of A23187- and antigen-induced degranulation in RBL-2H3 cells was determined by a β-hexosaminidase release assay as described previously (Chen et al., J. Nat. Prod., 72, 950-953, 2009; Matsuda et al., Bioorg. Med. Chem., 12, 5891-5898, 2004) with following modifications. RBL-2H3 cells were seeded in a 96-well plate (2×10^4 cells/well) for A23187-induced and in 48-well plate (3×10^4 cells/well) for antigen-induced experiment. Cells were treated with various concentrations of the samples for 20 h. Dexamethasone (10 nM) was used as a positive control. The cells for the antigen-induced experiment were first sensitized with anti-DNP IgE (5 μg/mL) for at least 2 h. […] Absorbance was measured at 405 nm on a microplate reader (Multiskan Ascent, Thermo Scientific). The inhibition percentage of β-hexosaminidase release was calculated as the percentage of control value (untreated stimulated cells). […]

Assay [2] deals with RBL-2H3 cells. Kind of assay: A23187-induced degranulation β-hexosaminidase release assay. The class given is cell-based. To be noted: Rattus norvegicus, A23187 1 μM. As for the experimental part: as §1, §2

For the compound `CCCCCCC/C=C/C=C/C=C\C(=O)O[C@@H]1[C@@H](C)[C@@]2(O)[C@@H](C=C(CO)C[C@]3(O)C(=O)C(C)=C[C@@H]23)[C@@H]2C(C)(C)[C@]12OC(C)=O` [phorbol ester I, 12-O-(2Z,4E,6E)-tetradeca-2,4,6-trienoylphorbol-13-acetate], the IC50 in the assay with RBL-2H3 cells [1] worked out at 11 nM; in the assay with RBL-2H3 cells [2], 1.7 nM.
